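A five-concentration, 48-hour dose response in 96-well plates underlies each endpoint, interpolated linearly between surrounding concentrations. GI50 marks 50% less growth. TGI: concentration producing complete growth inhibition.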
Experiments:
Experiment in all cases: DTP human tumour cell line panel, 48 h
[1] = system: MDA-MB-435
[2] = system: MDA-MB-231 breast
[3] = system: NCI-H522 lung
[4] = system: SNB-19 CNS
[5] = system: SF-539 CNS
[6] = system: OVCAR-3 ovarian
[7] = system: COLO 205 colon
[8] = system: SR leukemia
[9] = system: RPMI-8226 leukemia
[10] = system: UACC-62 melanoma

Row | Structure (SMILES) | TGI [1] | TGI [2] | TGI [3] | TGI [4] | TGI [5] | TGI [6] | TGI [7] | TGI [8] | TGI [9] | TGI [10] | GI50 [1] | GI50 [2] | GI50 [3] | GI50 [4] | GI50 [5] | GI50 [6] | GI50 [7] | GI50 [8] | GI50 [9] | GI50 [10]
1 | O=[N+]([O-])c1ccc(Cl)c(CNc2ncnc3c2ncn3C2CCCCO2)c1 (centres undefined) | 30.3 µM | > 100 µM | > 100 µM | > 100 µM | 66.1 µM | > 100 µM | > 100 µM | 64.4 µM | > 100 µM | > 100 µM |  |  |  |  |  |  |  |  |  | 
2 | Cc1ccc([N+](=O)[O-])c2c(NCCNC(=O)c3cc(C(=O)NCCNc4ccnc5c(C)ccc([N+](=O)[O-])c45)n(C)n3)ccnc12 | > 56.1 µM | > 84.8 µM | > 100 µM | > 100 µM | > 100 µM | > 100 µM | > 100 µM | > 82 µM | 78.3 µM | > 83 µM |  |  |  |  |  |  |  |  |  | 
3 | CC/C(Cc1ccccc1)=C(\c1ccc(OCCN2CCCC2)cc1)c1ccc(OC(=O)NCc2ccccc2)cc1 | 3.12 µM | 3.35 µM | 4.14 µM | 4.58 µM | 3.09 µM | 3.56 µM | 4.28 µM | 4.07 µM | 4.95 µM | 3.24 µM | 1.67 µM | 1.84 µM | 1.99 µM | 2.15 µM | 1.7 µM | 1.86 µM | 2.11 µM | 1.57 µM | 2.25 µM | 1.81 µM
4 | CS(=O)(=O)OCCCNCCCOS(C)(=O)=O | 8690 µM | 6120 µM | 5510 µM | 6450 µM | 5170 µM | 7600 µM | 4540 µM | 2970 µM | 6780 µM | 4260 µM |  |  |  |  |  |  |  |  |  | 
5 | O=C(NCC(F)(F)F)Nc1cccc(-c2cnc3cc(-c4ccc(F)cc4)ccn23)c1 | 0.983 µM | > 49.4 µM | 0.962 µM | > 100 µM | 3.5 µM | 15.8 µM | > 26.7 µM | 11.1 µM | 17.9 µM | > 56.2 µM | 0.216 µM | 2.65 µM | 0.225 µM | 2.26 µM | 0.522 µM | 0.812 µM | 0.531 µM | 0.314 µM | 1.29 µM | 2.44 µM
6 | CCCCC#Cc1c(I)n(C)c(=O)[nH]c1=O | 3.88 µM | 4.27 µM | 3.25 µM | 29.1 µM | 29.2 µM | 2.88 µM | 3.58 µM | 2.09 µM | 8.41 µM | 12.2 µM | 1.64 µM | 2.06 µM | 1.56 µM | 14.6 µM | 15.8 µM | 1.54 µM | 1.93 µM | 0.895 µM | 2.37 µM | 3.39 µM
7 | O=C(O)/C(Cc1ccnc2ccccc12)=N\O | > 100 µM | > 100 µM | > 100 µM | > 100 µM | > 100 µM | > 100 µM | > 100 µM | > 100 µM | > 100 µM | > 100 µM |  |  |  |  |  |  |  |  |  | 
8 | C#Cc1cccc(Nc2nc(Cl)nc3cc(NC(=O)CCl)ccc23)c1 | 3.83 µM | 2.73 µM | 0.897 µM | 4.59 µM | 5.59 µM | 0.984 µM | 1.35 µM | 1.68 µM | 4.61 µM | 3.26 µM | 1.04 µM | 0.758 µM | 0.465 µM | 1.68 µM | 2.36 µM | 0.47 µM | 0.586 µM | 0.542 µM | 0.895 µM | 0.82 µM
9 | CCOC(=O)C(Cc1ccc(N(CCCl)CCCl)cc1)NC(=O)C(Cc1ccccc1)NC=O (centres undefined) | 0.338 µM | 0.344 µM | 0.167 µM | 0.624 µM | 0.316 µM | 0.29 µM | 0.322 µM | 0.824 µM | 0.355 µM | 0.254 µM |  |  |  |  |  |  |  |  |  | 
10 | Cn1cc(C2=C(c3c[nH]c4ccccc34)C(=O)NC2=O)c2ccccc21 | > 25 µM | > 25 µM | > 25 µM | > 25 µM | 1.14 µM | > 11.9 µM | > 25 µM |  | > 20.8 µM | > 25 µM | 0.937 µM | 9.06 µM | 2.11 µM | 3.31 µM | 0.195 µM | 0.94 µM | 1.25 µM | 0.233 µM | 1.57 µM | 1.59 µM
11 | CC(C)N(Cc1ccc(CN(C(=O)CCl)C(C)C)cc1)C(=O)CCl | 4.9 µM | 6.42 µM | 0.342 µM | 5.4 µM | 3.25 µM | 3.22 µM | 4.36 µM | 0.838 µM | 5.13 µM | 2.97 µM | 1.7 µM | 2.1 µM | 0.156 µM | 2.16 µM | 1.67 µM | 1.69 µM | 2.16 µM | 0.225 µM | 2.06 µM | 1.04 µM
12 | NC(=O)c1ccc(Oc2nccc(-c3c(-c4ccc(F)cc4)ncn3C3CCNCC3)n2)cc1 | > 25 µM | > 25 µM | > 25 µM | > 25 µM | > 25 µM | > 25 µM | > 25 µM | > 25 µM | > 25 µM | > 25 µM | > 25 µM | > 25 µM | > 25 µM | > 25 µM | > 25 µM | > 25 µM | > 25 µM | > 25 µM | > 25 µM | > 25 µM
13 | O=C1/C(=C/c2ccc(F)cc2)CN(C(=O)CCN2CCC(=NO)CC2)C/C1=C\c1ccc(F)cc1 | 2.72 µM | 3.54 µM | 3.53 µM | 4.1 µM | 4.07 µM | 3.02 µM | 5.5 µM | > 100 µM | 2.13 µM | 2.41 µM | 0.827 µM | 1.37 µM | 1.24 µM | 1.53 µM | 1.95 µM | 1.14 µM | 1.94 µM | 0.197 µM | 0.707 µM | 0.84 µM
14 | C#CC1=CC(=O)C(OC)=CC1=O | 34.8 µM | 34.8 µM | 4.2 µM | > 100 µM | > 100 µM | > 100 µM | > 100 µM | 36.4 µM | 49.6 µM | 29.2 µM |  |  |  |  |  |  |  |  |  | 
15 | O=C(NC(=O)c1c(Cl)nc2sccn12)Nc1ccc(Cl)cc1 | > 100 µM | 68.5 µM | > 100 µM | 74.1 µM | 73.1 µM | > 100 µM | > 100 µM | > 100 µM | > 100 µM | > 100 µM |  |  |  |  |  |  |  |  |  | 
